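Following 48 hours of exposure in 96-well plates, responses at five concentrations were used to interpolate endpoints linearly. Here, GI50 denotes the concentration required for 50% inhibition of growth. TGI: total growth inhibition.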
What was measured:
Test in all cases: growth of human tumour cells (NCI), 48 h
SK-OV-3 ovarian = test system: SK-OV-3 ovarian
A498 renal = test system: A498 renal
MDA-N = test system: MDA-N
HT29 colon = test system: HT29 colon
TK-10 renal = test system: TK-10 renal
SNB-19 CNS = test system: SNB-19 CNS
A549 NSCLC = test system: A549 NSCLC
UO-31 renal = test system: UO-31 renal
IGROV1 ovarian = test system: IGROV1 ovarian
HS 578T breast = test system: HS 578T breast
SF-295 CNS = test system: SF-295 CNS
HCC-2998 colon = test system: HCC-2998 colon
NCI-H23 lung = test system: NCI-H23 lung
SNB-75 CNS = test system: SNB-75 CNS
NCI-H226 lung = test system: NCI-H226 lung
SN12C renal = test system: SN12C renal
786-0 renal = test system: 786-0 renal
U251 CNS = test system: U251 CNS
MCF7 breast = test system: MCF7 breast
OVCAR-5 ovarian = test system: OVCAR-5 ovarian
UACC-257 melanoma = test system: UACC-257 melanoma
MOLT-4 leukemia = test system: MOLT-4 leukemia
SK-MEL-5 melanoma = test system: SK-MEL-5 melanoma
RPMI-8226 leukemia = test system: RPMI-8226 leukemia
NCI/ADR-RES ovarian = test system: NCI/ADR-RES ovarian
OVCAR-4 ovarian = test system: OVCAR-4 ovarian
DU-145 prostate = test system: DU-145 prostate
K-562 leukemia = test system: K-562 leukemia
MDA-MB-231 breast = test system: MDA-MB-231 breast
NCI-H460 lung = test system: NCI-H460 lung
HCT-116 colon = test system: HCT-116 colon
KM12 colon = test system: KM12 colon
OVCAR-8 ovarian = test system: OVCAR-8 ovarian
HCT-15 colon = test system: HCT-15 colon
MALME-3M melanoma = test system: MALME-3M melanoma
COLO 205 colon = test system: COLO 205 colon
BT-549 breast = test system: BT-549 breast
SK-MEL-28 melanoma = test system: SK-MEL-28 melanoma
M14 melanoma = test system: M14 melanoma
CCRF-CEM leukemia = test system: CCRF-CEM leukemia
NCI-H522 lung = test system: NCI-H522 lung
CAKI-1 renal = test system: CAKI-1 renal
EKVX NSCLC = test system: EKVX NSCLC
SF-268 CNS = test system: SF-268 CNS
T-47D breast = test system: T-47D breast
HOP-92 NSCLC = test system: HOP-92 NSCLC
OVCAR-3 ovarian = test system: OVCAR-3 ovarian
HOP-62 NSCLC = test system: HOP-62 NSCLC
SK-MEL-2 melanoma = test system: SK-MEL-2 melanoma
RXF 393 renal = test system: RXF 393 renal
SW-620 colon = test system: SW-620 colon
ACHN renal = test system: ACHN renal
SF-539 CNS = test system: SF-539 CNS
MDA-MB-435 = test system: MDA-MB-435
PC-3 prostate = test system: PC-3 prostate
UACC-62 melanoma = test system: UACC-62 melanoma
HL-60(TB) leukemia = test system: HL-60(TB) leukemia
LOX IMVI melanoma = test system: LOX IMVI melanoma

CC=C(CBr)CCC(Br)C(C)(C)Cl (mixture of isomers) was tested, and the TGI (SK-OV-3 ovarian) was > 10 µM, the TGI (A498 renal) was > 10 µM and the TGI (MDA-N) was > 10 µM. For the same compound, the TGI (HT29 colon) was > 10 µM, the TGI (TK-10 renal) was > 10 µM and the TGI (SNB-19 CNS) was > 10 µM. The TGI (A549 NSCLC) was > 10 µM, the TGI (UO-31 renal) was > 10 µM and the TGI (IGROV1 ovarian) was > 10 µM. The TGI (HS 578T breast) was > 10 µM, the TGI (SF-295 CNS) was > 10 µM and the TGI (HCC-2998 colon) was > 10 µM. For the same compound, the TGI (NCI-H23 lung) was > 10 µM, the TGI (SNB-75 CNS) was > 10 µM and the TGI (NCI-H226 lung) was > 10 µM. For the same compound, the TGI (SN12C renal) was > 10 µM, the TGI (786-0 renal) was > 10 µM and the TGI (U251 CNS) was > 10 µM. The TGI (MCF7 breast) was > 10 µM, the TGI (OVCAR-5 ovarian) was > 10 µM and the TGI (UACC-257 melanoma) was > 10 µM. For the same compound, the TGI (MOLT-4 leukemia) was > 10 µM, the TGI (SK-MEL-5 melanoma) was > 10 µM and the TGI (RPMI-8226 leukemia) was > 10 µM. The TGI (NCI/ADR-RES ovarian) was > 10 µM, the TGI (OVCAR-4 ovarian) was > 10 µM and the TGI (DU-145 prostate) was > 10 µM. The TGI (K-562 leukemia) was > 10 µM, the TGI (MDA-MB-231 breast) was > 10 µM and the TGI (NCI-H460 lung) was > 10 µM. The TGI (HCT-116 colon) was > 10 µM, the TGI (KM12 colon) was > 10 µM and the TGI (OVCAR-8 ovarian) was > 10 µM. For the same compound, the TGI (HCT-15 colon) was > 10 µM, the TGI (MALME-3M melanoma) was > 10 µM and the TGI (COLO 205 colon) was > 10 µM. For the same compound, the TGI (BT-549 breast) was > 10 µM, the TGI (SK-MEL-28 melanoma) was > 10 µM and the TGI (M14 melanoma) was > 10 µM. The TGI (CCRF-CEM leukemia) was > 10 µM, the TGI (NCI-H522 lung) was > 10 µM and the TGI (CAKI-1 renal) was > 10 µM. For the same compound, the TGI (EKVX NSCLC) was > 10 µM, the TGI (SF-268 CNS) was > 10 µM and the TGI (T-47D breast) was > 10 µM. The TGI (HOP-92 NSCLC) was > 10 µM, the TGI (OVCAR-3 ovarian) was > 10 µM and the TGI (HOP-62 NSCLC) was > 10 µM. The TGI (SK-MEL-2 melanoma) was > 10 µM, the TGI (RXF 393 renal) was > 10 µM and the TGI (SW-620 colon) was > 10 µM. The TGI (ACHN renal) was > 10 µM, the TGI (SF-539 CNS) was > 10 µM and the TGI (MDA-MB-435) was > 10 µM. The TGI (PC-3 prostate) was > 10 µM.

In the case of COc1ccc(-c2cc(=O)c3cc(C)cnc3[nH]2)cc1, the TGI (SK-OV-3 ovarian) is reported as > 100 µM, the TGI (A498 renal) is reported as 62.6 µM and the TGI (UACC-62 melanoma) is reported as > 100 µM. For the same compound, the GI50 (MDA-N) was 1.69 µM, the TGI (MDA-N) was 4.98 µM and the TGI (HT29 colon) was 5.9 µM. For the same compound, the TGI (TK-10 renal) was > 100 µM, the TGI (SNB-19 CNS) was > 100 µM and the TGI (A549 NSCLC) was > 100 µM. The TGI (UO-31 renal) was > 100 µM, the TGI (IGROV1 ovarian) was > 100 µM and the TGI (HS 578T breast) was > 100 µM. The GI50 (SF-295 CNS) was 5.29 µM, the TGI (SF-295 CNS) was > 100 µM and the TGI (HCC-2998 colon) was 85 µM. The TGI (NCI-H23 lung) was > 100 µM, the TGI (NCI-H226 lung) was 51.7 µM and the TGI (SN12C renal) was > 100 µM. The GI50 (786-0 renal) was 5.1 µM, the TGI (786-0 renal) was > 100 µM and the GI50 (U251 CNS) was 4.2 µM. For the same compound, the TGI (U251 CNS) was > 100 µM, the TGI (MCF7 breast) was > 100 µM and the TGI (OVCAR-5 ovarian) was > 100 µM. For the same compound, the TGI (UACC-257 melanoma) was > 100 µM, the TGI (MOLT-4 leukemia) was 40.9 µM and the GI50 (SK-MEL-5 melanoma) was 3.73 µM. The TGI (SK-MEL-5 melanoma) was > 100 µM, the TGI (RPMI-8226 leukemia) was 45 µM and the GI50 (HL-60(TB) leukemia) was 2.27 µM. The TGI (HL-60(TB) leukemia) was 5.64 µM, the TGI (NCI/ADR-RES ovarian) was 23.5 µM and the TGI (OVCAR-4 ovarian) was > 100 µM. The TGI (DU-145 prostate) was > 100 µM, the TGI (K-562 leukemia) was 8.29 µM and the TGI (MDA-MB-231 breast) was > 100 µM. It also gave a GI50 (NCI-H460 lung) of 4.08 µM, a TGI (NCI-H460 lung) of 36.5 µM and a GI50 (HCT-116 colon) of 4.15 µM. For the same compound, the TGI (HCT-116 colon) was > 100 µM, the TGI (KM12 colon) was > 100 µM and the TGI (OVCAR-8 ovarian) was > 100 µM. The TGI (HCT-15 colon) was 19.8 µM, the TGI (MALME-3M melanoma) was > 100 µM and the TGI (COLO 205 colon) was 23 µM. The TGI (BT-549 breast) was 15 µM, the TGI (SK-MEL-28 melanoma) was > 100 µM and the TGI (M14 melanoma) was 45.1 µM. The TGI (NCI-H522 lung) was 30.7 µM, the TGI (CAKI-1 renal) was > 100 µM and the TGI (EKVX NSCLC) was > 100 µM. For the same compound, the TGI (SF-268 CNS) was > 100 µM, the TGI (T-47D breast) was > 100 µM and the TGI (HOP-92 NSCLC) was > 100 µM. For the same compound, the TGI (HOP-62 NSCLC) was > 100 µM, the TGI (LOX IMVI melanoma) was > 100 µM and the TGI (SK-MEL-2 melanoma) was > 100 µM. The TGI (RXF 393 renal) was > 100 µM, the TGI (SW-620 colon) was > 100 µM and the TGI (ACHN renal) was > 100 µM. The TGI (SF-539 CNS) was > 100 µM, the TGI (MDA-MB-435) was 5.53 µM and the GI50 (PC-3 prostate) was 5.32 µM. The TGI (PC-3 prostate) was > 100 µM.

Source: PubChem BioAssay (NCI)
